Laboratory results published in the supplement of paper PMC10307832.

Experiments:
Assay in all cases: relative viability (nuclei count vs DMSO), 5 days (fraction); higher = more cells survive
IU1-47 + Luminespib = compound: CC1=CC(=C(N1C2=CC=C(C=C2)Cl)C)C(=O)CN3CCCCC3 [IU1-47] + CCNC(=O)c1noc(-c2cc(C(C)C)c(O)cc2O)c1-c1ccc(CN2CCOCC2)cc1 [Luminespib] (partner 0.01 µM)
In short: (§1)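 Cells from lung cancer lines were seeded into 1536-well plates and, one day later, dosed by pin tool. Treatments were either a single drug or a fixed dose of an anchor drug with five library-drug doses (not always all listed) in √10 steps. After 5 days, nuclei were stained in a one-step fixation (final 0.05% Triton X-100, 1% formaldehyde, 1 ug/ml Hoechst) and counted on 4× images, and relative viability is the treated-to-vehicle nuclei ratio, as the median of duplicate plates.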

FG-4592 + Decitabine = compound: Cc1nc(C(=O)NCC(=O)O)c(O)c2ccc(Oc3ccccc3)cc12 [FG-4592] + Nc1ncn([C@H]2C[C@H](O)[C@@H](CO)O2)c(=O)n1 [Decitabine] (partner 2 µM)
In short: as §1

FG-4592 + Trametinib = compound: Cc1nc(C(=O)NCC(=O)O)c(O)c2ccc(Oc3ccccc3)cc12 [FG-4592] + CC(=O)Nc1cccc(-n2c(=O)n(C3CC3)c(=O)c3c(Nc4ccc(I)cc4F)n(C)c(=O)c(C)c32)c1 [Trametinib] (partner 0.02 µM)
In short: as §1

FG-4592 + Linsitinib = compound: Cc1nc(C(=O)NCC(=O)O)c(O)c2ccc(Oc3ccccc3)cc12 [FG-4592] + C[C@]1(O)C[C@@H](c2nc(-c3ccc4ccc(-c5ccccc5)nc4c3)c3c(N)nccn32)C1 [Linsitinib] (partner 1 µM)
In short: as §1

Cell Line	relative viability (IU1-47 + Luminespib; first compound 0.08 µM)	relative viability (IU1-47 + Luminespib; first compound 0.253 µM)	relative viability (IU1-47 + Luminespib; first compound 0.8 µM)	relative viability (IU1-47 + Luminespib; first compound 2.53 µM)	relative viability (IU1-47 + Luminespib; first compound 8 µM)	relative viability (FG-4592 + Decitabine; first compound 0.253 µM)	relative viability (FG-4592 + Decitabine; first compound 0.8 µM)	relative viability (FG-4592 + Decitabine; first compound 2.53 µM)	relative viability (FG-4592 + Decitabine; first compound 8 µM)	relative viability (FG-4592 + Trametinib; first compound 0.253 µM)	relative viability (FG-4592 + Trametinib; first compound 0.8 µM)	relative viability (FG-4592 + Trametinib; first compound 2.53 µM)	relative viability (FG-4592 + Trametinib; first compound 8 µM)	relative viability (FG-4592 + Linsitinib; first compound 0.08 µM)	relative viability (FG-4592 + Linsitinib; first compound 0.253 µM)	relative viability (FG-4592 + Linsitinib; first compound 0.8 µM)	relative viability (FG-4592 + Linsitinib; first compound 2.53 µM)	relative viability (FG-4592 + Linsitinib; first compound 8 µM)	relative viability (FG-4592 + Decitabine; first compound 0.08 µM)	relative viability (FG-4592 + Trametinib; first compound 0.08 µM)
NCI-H322M	1.03	0.929	0.922	0.879	0.715	0.658	0.714	0.638	0.725	0.482	0.475	0.497	0.438	0.858	0.914	0.807	0.92	0.861		
NCI-H358	0.366	0.328	0.347	0.3	0.349	0.194	0.288	0.192	0.202	0.135	0.122	0.16	0.124	0.723	0.679	0.73	0.681	0.605	0.213	0.138
NCI-H441	0.328	0.336	0.478	0.379	0.343	0.255	0.234	0.232	0.25	0.433	0.401	0.3	0.497	0.451	0.498	0.477	0.57	0.562	0.235	0.497
NCI-H460	0.0244	0.0322	0.0367	0.0341	0.0295	0.461	0.51	0.482	0.51	0.13	0.127	0.0958	0.129	0.708	0.665	0.788	0.766	0.748	0.448	0.163
NCI-H520	0.259	0.238	0.248	0.285	0.248	0.443	0.493	0.577	0.434	0.557	0.573	0.719	0.473	0.85	0.895	1.04	0.953	0.764	0.454	0.594
NCI-H596	0.926	1.05	1	1.12	0.752	1.01		0.897	0.8	0.804		0.842	0.564	1.28	1.01		1.04	0.983	0.92	0.861
NCI-H647	0.409	0.276	0.125	0.221	0.176	0.326	0.341	0.372	0.227	0.453	0.336	0.448	0.333	1.18	1.1	1.3	1.32	1.16	0.347	0.444
NCI-H650	0.849	0.81	0.831	0.671	0.828	0.275	0.301	0.296	0.306	0.936	0.916	1	0.838	0.884	0.704	0.669	0.724	0.631	0.314	1.06
NCI-H661	0.901	0.936	1.01	0.924	0.877	0.469	0.563	0.535	0.484	0.525	0.536	0.554	0.525	0.475	0.588	0.55	0.678	0.446	0.526	0.559
NCI-H727	0.356	0.241	0.803	0.365	0.293	0.663	1.15	0.9	0.84	0.335	0.352	0.357	0.38	0.298	0.307	0.3	0.268	0.271	0.889	0.363
NCI-H838	0.31	0.347	0.262	0.243	0.282	0.439	0.446	0.459	0.443	0.51	0.412	0.473	0.46	1.1	0.941	1.01	1.04	0.938	0.456	0.497
NCI-H1355	0.773	0.721	0.735		0.64	0.297		0.378	0.307	0.455		0.421	0.337	0.87	0.778		0.843	0.736	0.355	0.462
NCI-H1395	0.678	0.715	0.547	0.597	0.813	0.677	0.75	0.686	0.614	1.01	0.936	1.03	0.773	1.06	0.949		1.05	0.824	0.766	0.961
NCI-H1437	1.2	1.1	1.21	1.11	1.1	0.512	0.606	0.632	0.534	0.414	0.473	0.47	0.301	0.995	0.976	0.99	0.95	0.786	0.576	0.539
NCI-H1651	0.876	0.85	0.924	0.974	0.819	0.603	0.703	0.668	0.499	0.836	0.76	0.774	0.82	0.986	0.998	0.915	1.09	0.815	0.713	0.85
NCI-H1666	1.08	1.02	0.938	0.942	0.854	0.724	0.867	0.711	0.759	0.856	0.922	0.776	0.711	0.781	0.884	0.769	0.831	0.677	0.836	0.88
NCI-H1734	0.181	0.202	0.18		0.215	0.463	0.53	0.489	0.458	0.631	0.618	0.733	0.559	0.896	0.814	0.716	0.875	0.927	0.519	0.719

Cell Line	relative viability (IU1-47 + Luminespib; first compound 0.08 µM)	relative viability (IU1-47 + Luminespib; first compound 0.253 µM)	relative viability (IU1-47 + Luminespib; first compound 0.8 µM)	relative viability (IU1-47 + Luminespib; first compound 2.53 µM)	relative viability (IU1-47 + Luminespib; first compound 8 µM)	relative viability (FG-4592 + Decitabine; first compound 0.253 µM)	relative viability (FG-4592 + Decitabine; first compound 0.8 µM)	relative viability (FG-4592 + Decitabine; first compound 2.53 µM)	relative viability (FG-4592 + Decitabine; first compound 8 µM)	relative viability (FG-4592 + Trametinib; first compound 0.253 µM)	relative viability (FG-4592 + Trametinib; first compound 0.8 µM)	relative viability (FG-4592 + Trametinib; first compound 2.53 µM)	relative viability (FG-4592 + Trametinib; first compound 8 µM)	relative viability (FG-4592 + Linsitinib; first compound 0.08 µM)	relative viability (FG-4592 + Linsitinib; first compound 0.253 µM)	relative viability (FG-4592 + Linsitinib; first compound 0.8 µM)	relative viability (FG-4592 + Linsitinib; first compound 2.53 µM)	relative viability (FG-4592 + Linsitinib; first compound 8 µM)	relative viability (FG-4592 + Decitabine; first compound 0.08 µM)	relative viability (FG-4592 + Trametinib; first compound 0.08 µM)
NCI-H1755	0.273	0.465	0.325	0.479	0.451	0.773	0.736	0.679	0.689	0.74	0.729	0.827	0.725	0.993	0.961	0.963	1.04	1.06	0.697	0.792
NCI-H1792	0.573	0.358	0.515	0.308	0.568	0.485		0.525	0.484	0.435		0.414	0.375	0.522	0.411	0.487	0.577	0.567	0.508	0.429
NCI-H1793	0.177	0.188	0.165		0.171	0.476		0.55	0.398	0.453		0.434	0.4	0.732	0.78		1.01	0.856		
NCI-H1915	0.816	0.804	0.848		0.728	0.28	0.284	0.255	0.252	0.266	0.274	0.287	0.258	1.06	1.07	1.19	1.11	1.07	0.271	0.304
NCI-H1944	0.989	0.764	0.832	0.729	0.778	0.446	0.415	0.436	0.388	0.409	0.464	0.422	0.371	1.15	1.16	1.01	1.2	1.04	0.422	0.426
NCI-H1975	0.142	0.198	0.199	0.228	0.37	0.363	0.426	0.406	0.404	0.292	0.337	0.24	0.184	1.01	0.902	1.01	0.96	0.752	0.378	0.33
NCI-H1993	0.857	0.888	0.804	0.868	0.716	0.602		0.665	0.572	0.516		0.479	0.507	0.808	0.646	0.713	0.728	0.706	0.695	0.556
NCI-H2009	1.09	1.04	0.986	1.01	1.05	0.339	0.381	0.343	0.349	0.181	0.262	0.31	0.162	1.19	1.08	1.28	1.21	1.19	0.406	0.32
NCI-H2023	0.777	0.902	0.913	0.885	0.768	0.209	0.222	0.243	0.203	0.595	0.612	0.593	0.506	0.611	0.575	0.646	0.77	0.685	0.231	0.488
NCI-H2085	0.446	0.5	0.522	0.446	0.318	0.493	0.51	0.597	0.545	0.539	0.718	0.629	0.516	0.804	0.861	0.758	0.878	0.815	0.554	0.48
NCI-H2087	0.194	0.166	0.18		0.163	0.308	0.348		0.256	0.19	0.198		0.235	0.865	0.713	1.13	0.878	1.14	0.368	0.224
NCI-H2126	0.928	0.975	0.949		0.899	0.541	0.543	0.578	0.578	0.576	0.455	0.534	0.476	0.68	0.73	0.593	0.699	0.655	0.54	0.586
NCI-H2347	0.233	0.363	0.642	0.513	0.32	0.523	0.629	0.581	0.613	0.323	0.267	0.326	0.28	1.09		0.822	0.927	1.01	0.665	0.315
NCI-H2405	0.77	0.824	0.739	0.694	0.804	0.714	0.702	0.688	0.671	0.57	0.507	0.587	0.411		0.583	0.884	0.801	0.72	0.69	0.548
NCI-H3122		0.08	0.0904	0.108	0.106	0.476	0.332	0.48	0.362	0.244	0.196	0.264	0.119	0.95	1.03	1.07	1.02	0.816	0.405	0.19
PC-3 [JPC-3]	0.822	0.695	0.723	0.466	0.603	0.767		0.844	0.911	0.601		0.72	0.844	0.965	0.974	0.969	1.04	1.01	0.836	0.773
